“Also recorded” adds a separate entry of the source.

The target of data set [1] is influenza N2 subtype neuraminidase from A/Hong Kong/1/68 (H3N2) (Influenza A virus, UniProt Q91MA2). It counts as biochemical, influenza A/Hong Kong/1/68 (H3N2). As to conditions: pH 7.6.
For data set [2], the target named is sialidase from Micromonospora viridifaciens (NedA) (Micromonospora viridifaciens, UniProt Q02834). It is filed as biochemical.
A short description of data set [3]: Spontaneous hydrolysis of stock solution.
The next data set has as its system influenza B NAs. It counts as biochemical.
In data set [4] the test system is A/California/07/2009 H1N1 NA. It is filed as biochemical, influenza A/California/07/2009 H1N1. As to conditions: pH 7.6.
Data set [5] deals with A/Washington/10/2008 H1N1 NA. It counts as biochemical, influenza A/Washington/10/2008 H1N1. As to conditions: pH 7.6.
The target in data set [6] is NA of A/WS/33 (H1N1) influenza virus (Influenza A virus, UniProt P03470). It is filed as biochemical, influenza A/WS/33 (H1N1).
In another data set the test system is B/Florida/04/2006 NA. It is filed as biochemical, influenza B/Florida/04/2006. As to conditions: pH 7.6.
For another data set, the system named is influenza virus NAs. It is filed as biochemical.
Data set [7] relates to A/Brisbane/59/2007 H1N1 NA. It is filed as biochemical, influenza A/Brisbane/59/2007 H1N1. As to conditions: pH 7.6.
The subject of a further data set is B/Hong Kong/05/1972 NA. It is filed as biochemical, influenza B/Hong Kong/05/1972. As to conditions: pH 7.6.
The subject of another data set is NA activity of virus. It is filed as biochemical.
Data set [8] relates to CC(=O)NC1C(NC(=N)N)C(F)C(Oc2c(F)cc3c(C)cc(=O)oc3c2F)(C(=O)O)OC1[C@H](O)[C@H](O)CO. The data set can be described thus: purified protein, by the assay type. As to conditions: pH 7.6; 30.0 °C.

Chain of sialidase from Micromonospora viridifaciens (NedA) (Q02834 38-647): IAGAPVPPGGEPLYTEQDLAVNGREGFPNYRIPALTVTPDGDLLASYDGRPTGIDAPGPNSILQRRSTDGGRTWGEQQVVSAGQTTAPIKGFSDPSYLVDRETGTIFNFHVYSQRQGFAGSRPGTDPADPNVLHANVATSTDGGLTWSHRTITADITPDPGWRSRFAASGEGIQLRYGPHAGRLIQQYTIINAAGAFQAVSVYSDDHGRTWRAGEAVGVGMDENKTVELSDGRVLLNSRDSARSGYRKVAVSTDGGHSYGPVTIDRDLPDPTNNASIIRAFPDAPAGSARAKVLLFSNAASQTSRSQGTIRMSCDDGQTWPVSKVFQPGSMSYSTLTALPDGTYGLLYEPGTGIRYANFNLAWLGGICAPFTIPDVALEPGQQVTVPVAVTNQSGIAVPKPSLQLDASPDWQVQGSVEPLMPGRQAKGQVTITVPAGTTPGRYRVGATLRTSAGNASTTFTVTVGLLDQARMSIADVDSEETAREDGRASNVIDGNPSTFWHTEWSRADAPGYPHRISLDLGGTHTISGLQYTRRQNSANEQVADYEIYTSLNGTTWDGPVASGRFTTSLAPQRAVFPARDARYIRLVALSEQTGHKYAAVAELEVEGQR
Chain of influenza N2 subtype neuraminidase from A/Hong Kong/1/68 (H3N2) (Q91MA2 whole entry, looked up): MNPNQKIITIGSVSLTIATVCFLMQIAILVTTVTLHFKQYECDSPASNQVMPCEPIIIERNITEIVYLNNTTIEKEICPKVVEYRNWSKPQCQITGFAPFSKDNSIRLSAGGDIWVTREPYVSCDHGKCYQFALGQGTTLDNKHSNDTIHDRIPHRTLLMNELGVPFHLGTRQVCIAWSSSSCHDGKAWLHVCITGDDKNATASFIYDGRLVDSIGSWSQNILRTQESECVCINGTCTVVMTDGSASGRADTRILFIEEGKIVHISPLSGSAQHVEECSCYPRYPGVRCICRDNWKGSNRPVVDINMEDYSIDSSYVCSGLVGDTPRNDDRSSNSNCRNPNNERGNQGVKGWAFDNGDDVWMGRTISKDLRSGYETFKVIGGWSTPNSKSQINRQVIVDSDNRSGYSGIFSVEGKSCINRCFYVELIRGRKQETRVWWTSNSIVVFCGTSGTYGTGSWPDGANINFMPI
Chain of NA of A/WS/33 (H1N1) influenza virus (P03470 whole entry, looked up): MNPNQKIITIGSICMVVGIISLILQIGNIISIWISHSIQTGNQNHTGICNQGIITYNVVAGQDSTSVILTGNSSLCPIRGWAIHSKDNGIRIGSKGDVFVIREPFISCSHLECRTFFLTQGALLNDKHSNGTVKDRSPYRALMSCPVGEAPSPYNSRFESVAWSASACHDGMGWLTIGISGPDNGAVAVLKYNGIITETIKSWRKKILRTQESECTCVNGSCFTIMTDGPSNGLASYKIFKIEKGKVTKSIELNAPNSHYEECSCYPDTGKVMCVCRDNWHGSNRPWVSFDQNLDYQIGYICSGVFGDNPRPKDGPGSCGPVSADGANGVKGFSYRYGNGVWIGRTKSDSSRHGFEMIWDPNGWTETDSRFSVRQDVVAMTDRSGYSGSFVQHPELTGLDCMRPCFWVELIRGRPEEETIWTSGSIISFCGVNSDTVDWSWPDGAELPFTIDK

On to `CC(=O)NC1C(O)C(F)C(Oc2c(F)cc3c(C)cc(=O)oc3c2F)(C(=O)O)OC1[C@H](O)[C@H](O)CO` (stereo partly drawn) [compound 1, 5-Acetamido-3-fluoro-3,5-dideoxy-2α-(4-methyl-6,8-difluoromethylumbelli-feryl)-D-glycero-D-galactononulopyranosylnoic Acid], for which the “burst and turnover on titration of N2” value in data set [1] is on record as “a burst was indeed seen, but significant turnover was also observed”. Moreover, the “NedA concentration down to which burst size vs concentration is linear” value in data set [2] is reported as no more than 0.7 nM. For the same compound, in data set [2] (pH 7.6), the “fluorescence response on titration of NedA (burst and turnover)” value was “a classical burst phase of increased fluorescence was observed, followed by a steady-state phase”. The “stability of stock solution” value in [3] is on record as “undergoes slow spontaneous hydrolysis”.

As for `CC(=O)NC1C(N)C(F)C(Oc2c(F)cc3c(C)cc(=O)oc3c2F)(C(=O)O)OC1[C@H](O)[C@H](O)CO` (stereo partly drawn) [compound 2, 5-Acetamido-4-amino-3-fluoro-3,4,5-trideoxy-2α-(4-methyl-6,8-difluoromethylumbelliferyl)-D-glycero-D-galactononulopyranosylnoic acid], in data set [1], the “burst and turnover on titration of N2” value was “produced a burst, but significant turnover was still observed”.

Regarding `CC(=O)NC1C(NC(=N)N)C(F)C(Oc2c(F)cc3c(C)cc(=O)oc3c2F)(C(=O)O)OC1[C@H](O)[C@H](O)CO` (stereo partly drawn) [compound 3, 5-Acetamido-4-guanidine-3-fluoro-3,4,5-trideoxy-2α-(4-methyl-6,8-difluoromethylumbelliferyl)-D-glycero-D-galactononulopyranosylnoic acid], the time to inactivation entry with influenza B NAs is given as “within several seconds”. The Km in data set [4] worked out at 31.9 µM; in [5], 62.2 µM; in the data set with B/Florida/04/2006 NA it was 28.6 µM; in [7], 41.1 µM; with B/Hong Kong/05/1972 NA it was 29.6 µM. Also, the kcat was 76.4 s⁻¹ in data set [4]; 63.3 s⁻¹ in data set [5]; 26.7 s⁻¹ in the data set on B/Florida/04/2006 NA; 32.6 s⁻¹ in data set [7]; 30.0 s⁻¹ in the data set with B/Hong Kong/05/1972 NA. In [1], the “burst and turnover on titration of N2” value is “no detectable turnover at all, while a rapid initial burst was observed”. For the same compound, the “NA concentration down to which reliable data are given” value in [6] is given as “approximately 200 pM”. Further, in [6], the “burst, F2Mu released” value is on record as 27 nM. In data set [6], the “initial concentration of NA in the original virus sample” value was 1.08 µM. In addition, the “time to reach plateau of titration” value in the data set on influenza virus NAs was “about 30 min”. Besides, the “response on incubation with GH33 sialidase NedA” value in data set [2] was “no significant response”.

For the compound `O=C1CCO1` [β-propiolactone], the “effect on NA activity compared to live virus” value in the data set with NA activity of virus is “significantly reduced NA activities; also recorded: dramatically reduced NA activities”.

As for “(Influenza A virus (A/Hong Kong/1/1968(H3N2)))”, in data set [8], the Km was determined as 45.6 µM, the kcat is 76.7 s⁻¹ and the kcat/Km stood at 1.68e+06 M⁻¹ s⁻¹.

Regarding nonyl phenoxypolyethoxylethanol [NP40], the “effect on NA activity compared to live virus” value in the data set with NA activity of virus is “did not affect the NA activity; also recorded: did not affect the NA activities”.

As a reminder, the Km is the concentration of substrate that gives half-maximal velocity. The term kcat denotes the maximal rate divided by the concentration of active sites. Broadly, the kcat/Km is the turnover number divided by the Michaelis constant.

For the origin of these results see US11639348B2, “Compositions and methods for neuraminidase detection and quantification” (priority 2018, dated 2023).
